# According to article PMC3039689, “Identification of Small Molecule Lead Compounds for Visceral Leishmaniasis Using a Novel Ex Vivo Splenic Explant Model System” (PLoS Neglected Tropical Diseases, 2011):
# Where a name gives a salt, the structure may show the parent alone. Read-outs that look alike come from different tables or passages of the source.
# Columns and labels:
# [1] = target: luciferase-transfected Leishmania donovani; experiment: Anti-leishmanial efficacy (EC50) in the ex vivo splenic explant model; assay type: cell-based
# Procedure: To establish the plate assay for drug screening, the spleens from 2 infected hamsters were aseptically removed and placed in a Petri dish containing 5 mL of Collagenase D (Roche) at 2 mg/mL of buffer (10 mM Hepes pH 7.4, 150 mM NaCl, 5 mM KCl, 1 mM MgCl2, 1.8 mM CaCl2). The spleen was infiltrated by injection with approximately 2 mL of Collagenase solution, the tissue was cut into small pieces using sharp scissors, and incubated for 20 minutes at 37°C. The cell suspension and remaining tissue fragments were gently passed through a 100 µm cell strainer (B–D) to obtain a single cell suspension, which was washed twice by centrifugation (500 g for 7 min at 4°C) and re-suspended in culture medium composed of DMEM (Gibco), 5% FBS, 1 mM Sodium pyruvate (Gibco), 1X MEM amino acids solution (Sigma), 0.02% v/v/EDTA, 10 mM HEPES buffer (Cellgro) and 100 IU/mL Penicillin/100 […] Streptomycin solution (Cellgro).
# The anti-leishmanial efficacy of the compounds was determined using the splenic explant model in a 96-well plate format. […] Because variation in the parasite burden between different explant cultures was expected, the concentration of cells used in each experiment was adjusted to give approximately 100 counts by luminometry (equivalent to ∼240,000 parasites). The number of surviving parasites was determined by luminometry as described above.
# HepG2 cells = experiment: Cell toxicity (CC50) in the HepG2 cell line, CellTiter-Glo; assay type: cell-based, human
# Procedure: (§1) After 24 hours of culture at 37°C the number of viable cells was determined by quantification of the ATP present in the cell using the CellTiter-Glo luminescent Cell Viability Assay (Promega).
# [2] = as above; assay type: cell-based, human; conditions: human
# Procedure: as §1
# [3] = ex vivo splenic explant, 48 h, luminometry, at least two experiments, compound from screened library, read-out: Ex vivo model EC50 Mean
# [4] = HepG2 cell line, 24 h, ATP luminescence, compound from screened library, read-out: HepG2 CC50 Mean
# [5] = 50% reduction in parasite counts in the ex vivo model, read-out: EC50 Mean (Table S2)
# [6] = Leishmania donovani, ex vivo splenic explant, 48 h, luminometry, at least two experiments, compound from screened library, read-out: Ex vivo model EC50 Mean
# [7] = Leishmania donovani, 48 h, ex vivo splenic explant, 48 h, luminometry, at least two experiments, compound from screened library, read-out: Ex vivo model EC50 Mean
# [8] = Leishmania donovani, 50% reduction in parasite counts in the ex vivo model, read-out: EC50 Mean (Table S2)
# [9] = HepG2 cells, HepG2 cell line, 24 h, ATP luminescence, compound from screened library, read-out: HepG2 CC50 Mean
compound,measurement,setting,value
"7-(2-(6-Ethoxy-1-methyl-1.lambda.~5~-quinolin-2-yl)vinyl)-5-methyl-8-quinolinol; Quinolinium, {6-ethoxy-2-[2-(8-hydroxy-5-methyl-7-quinolyl)vinyl]-1-methyl-} iodide",EC50,[1]; [3],5.7 µM
same,CC50,HepG2 cells; [4],46 µM
OC(c1cc(-c2ccc(Cl)cc2)nc2ccccc12)C1CCCCN1 (stereo not shown) [2-(4-chlorophenyl)quinolin-4-yl]-(2-piperidyl)methanol],EC50,[1]; [3],6.7 µM
same,CC50,HepG2 cells; [4],38.4 µM
"c1ccc(-c2ccc(-c3ccc(C4=NCCN4)cc3)o2)cc1 [2-[4-(5-phenylfuran-2-yl)phenyl]-4,5-dihydro-1H-imidazole chloride]",EC50,[1]; [3],7.5 µM
same,CC50,HepG2 cells,42.9 µM
"CCC1=C(CC2NCCc3cc(OC)c(OC)cc32)CC2c3ccccc3CCN2C1 (stereo not shown) [2-[(6,7-dimethoxy-1,2,3,4-tetrahydroisoquinolin-1-yl)methyl]-3-ethyl-4,6,7,11b-tetrahydro-1H-pyrido[2,1-a]isoquinoline]",EC50,[1]; [3],8.8 µM
same,CC50,HepG2 cells; [4],76.2 µM
OC(c1cc(-c2ccccc2)nc2c1ccc1ccccc12)C1CCCCN1 (stereo not shown) [2-phenylbenzo[h]quinolin-4-yl)(2-piperidinyl)me],EC50,[1]; [3],5 µM
same,CC50,HepG2 cells; [4],28.7 µM
"CCN(CC)CC(O)c1ccc2ccc3ccccc3c2c1 (stereo not drawn) [3-Phenanthrenemethanol, α-[ (diethylamino)methyl]-, hydrochloride]",EC50,[1]; [3],8.9 µM
same,CC50,HepG2 cells; [4],54.2 µM
O=[As](O)(O)c1ccc(Cc2ccc([As](=O)(O)O)cc2)cc1 [4-[(4-arsonophenyl)methyl]phenyl]arsonic acid],EC50,[1]; [3],6.9 µM
same,CC50,HepG2 cells; [4],34.5 µM
CCCCCCc1ccc(O)cc1O.Nc1c2ccccc2nc2ccccc12 [Acrisorcin],EC50,[1]; [3],8 µM
same,CC50,HepG2 cells; [4],50.9 µM
CC1=CC(C2/C(=N/O)C=C(C)CC2(C)C)C(O)C(C)(C)C1 (stereo not shown) [Cristox Oxime],EC50,[1]; [3],10.9 µM
same,CC50,HepG2 cells; [4],140 µM
CC(C)c1ccc2c(c1)CC[C@H]1[C@](C)(CN)CCC[C@]21C [Dehydroabietylamine],EC50,[1]; [3],5.8 µM
same,CC50,HepG2 cells,32.9 µM
CCN(CC)COC(=S)S [Diethylaminomethoxymethanedithioic acid],EC50,[1]; [3],3.7 µM
same,CC50,HepG2 cells; [4],83.7 µM
CC(C)=CC(=O)O[C@H]1[C@H]2[C@H](OC(=O)[C@H]2C)[C@H](O)[C@@H](C)[C@@H]2C=CC(=O)[C@]21C [Fastigilin B],EC50,[1]; [3],8.9 µM
same,CC50,HepG2 cells; [4],44.8 µM
CC[C@@H](C(=O)[C@@H](C)[C@@H](O)[C@H](C)CCc1ccc(C)c(O)c1C(=O)O)[C@H]1O[C@](CC)([C@H]2CC[C@](O)(CC)[C@H](C)O2)C[C@@H]1C [Lasalocid Sodium],EC50,[1]; [3],8.9 µM
same,CC50,HepG2 cells; [4],45.8 µM
"c1ccc2c(c1)Sc1ccccc1N2CC1CN2CCC1CC2 (stereo not shown) [Mequitazine,10-(3-Quinuclidinylmethyl)phenothiazine]",EC50,[1]; [3],8.5 µM
same,CC50,HepG2 cells; [4],50.3 µM
Cc1cc(C(C)(C)CC(C)(C)C)ccc1OCCOCC[N+](C)(C)Cc1ccccc1 [Methylbenzethonium Chloride],EC50,[1]; [5],7.06 µM
same,EC50,[1]; [3],7.1 µM
same,CC50,HepG2 cells,53.2 µM
"CN(C)CCCNc1c2c(nc3ccc(Cl)cc13)CCCC2 [N-(7-chloro-1,2,3,4-tetrahydroacridin-9-yl)-N',N'-dimethyl-propane-1,3-diamine]",EC50,[1]; [6],6.4 µM
same,CC50,[2]; [4],58.8 µM
"COc1cc2ccccc2c2cc([N+](=O)[O-])oc12 [Naphtho(2,1-b)furan, 4-methoxy-2-nitro-]",EC50,[1]; [7],6.8 µM
same,CC50 at 24 h,[2],64.3 µM
CC[C@@H](C(=O)O)[C@@H]1O[C@@H]([C@@H](C)[C@H](O)[C@H](C)C(=O)[C@H](CC)[C@H]2O[C@]3(C=C[C@@H](O)[C@]4(CC[C@@](C)([C@H]5CC[C@](O)(CC)[C@H](C)O5)O4)O3)[C@H](C)C[C@@H]2C)[C@@H](C)C[C@@H]1C [Narasin],EC50,[1]; [7],13.3 µM
same,EC50,[1]; [8],13.3 µM
same,CC50 at 24 h,[2],73 µM
"CO[C@@H]1C[C@@H](C[C@H]2CC[C@H](C)[C@H]([C@@H](C)C(=O)O)O2)O[C@]2(O[C@](C)([C@H]3CC[C@@](C)([C@@H]4O[C@@H]([C@H]5O[C@@](O)(CO)[C@H](C)C[C@@H]5C)C[C@@H]4C)O3)C[C@H]2C)[C@@H]1C [Nigericin, monosodium salt]",EC50,[1]; [7],3.1 µM
same,EC50,[1]; [8],3.13 µM
same,CC50 at 24 h,[2],34.3 µM
C[C@@H]1C[C@H]2CC[C@H](O2)[C@H](C)C(=O)O[C@@H](C)C[C@@H]2CC[C@@H](O2)[C@@H](C)C(=O)O[C@H](C)C[C@H]2CC[C@H](O2)[C@H](C)C(=O)O[C@@H](C)C[C@@H]2CC[C@@H](O2)[C@@H](C)C(=O)O1 [Nonactin],EC50,[1]; [6],0.1 µM
same,CC50,[2],23.7 µM
CNCCC=C1c2ccccc2CCc2ccccc21 [Nortriptyline Hydrochloride],EC50,[1]; [7],7.8 µM
same,CC50,[2],52.6 µM
CCCCCCCCCCC[C@@H](C[C@@H]1OC(=O)[C@H]1CCCCCC)OC(=O)[C@H](CC(C)C)NC=O [Orlistat],EC50,[1]; [7],24.9 µM
same,CC50 at 24 h,[2],161 µM
N=C1C=CC(=C(c2ccc(N)cc2)c2ccc(N)cc2)C=C1 [Pararosaniline Pamoate],EC50,[1]; [6],2.7 µM
same,CC50 at 24 h,[2],37.1 µM
C=C1C(=O)O[C@@H]2[C@H]1CC[C@H](C)[C@]1(O)C=CC(=O)[C@@]21C [Parthenicin],EC50,[1]; [3],8.7 µM
same,CC50,HepG2 cells; [4],64.5 µM
C=C1C(=O)O[C@H]2[C@H]1CC/C(C)=C/CC[C@@]1(C)O[C@@H]21 [Parthenolide],EC50,[1]; [7],13.3 µM
same,EC50,[1]; [8],13.3 µM
same,CC50 at 24 h,[2]; [9],81.1 µM
C[C@]12C(=O)C=CCC1=CC[C@@H]1[C@@H]2CC[C@@]2(O)C(=O)O[C@@]3(C)[C@H]4C[C@]5(C)[C@@H](CO[C@@]16O[C@]23[C@H]5C6=O)C(=O)O4 [Physalin B],EC50,[1]; [8],8.59 µM
same,EC50,[1]; [6],8.6 µM
same,CC50 at 24 h,[2]; [4],50.7 µM
"CN(C)CCCNc1c2c(=O)n(C)c(=O)nc-2n(C)c2ccccc12 [Pyrimido[4,5-b]quinoline-2,4(3H,10H)-dione, 5-[[3-(dimethylamino)propyl]amino]-3,10-dimethyl-, monohydrochloride]",EC50,[1]; [7],6.5 µM
same,CC50 at 24 h,[2]; [9],49.5 µM
C=C1C(=O)[C@]23[C@H](O)[C@H]1CC[C@H]2[C@@]12CO[C@]3(O)[C@@H](O)[C@@H]1C(C)(C)CC[C@@H]2O [Rubescensin A],EC50,[1]; [3],11 µM
same,CC50,HepG2 cells,69.1 µM
"CC[C@@H](C(=O)[C@@H](C)[C@@H](O)[C@H](C)[C@@H]1O[C@@H]([C@@H](CC)C(=O)O)CC[C@@H]1C)[C@H]1O[C@]2(C=C[C@@H](O)[C@]3(CC[C@@](C)([C@H]4CC[C@](O)(CC)[C@H](C)O4)O3)O2)[C@H](C)C[C@@H]1C [Salinomycin, Sodium]",EC50,[1]; [5],7.44 µM
same,EC50,[1]; [3],7.4 µM
same,CC50,HepG2 cells; [4],48.4 µM
O=C1C=C2C=C[C@@H]3C[C@@]2(O1)[C@H]1CCCCN31 [Securinine],EC50,[1]; [6],6.2 µM
same,CC50,[2]; [4],47.7 µM
NCCCCNCCCN [Spermidine Trihydrochloride],EC50,[1]; [7],20 µM
same,CC50 at 24 h,[2]; [9],132 µM
CC1CC(C)(O)CC(C(O)CC2CC(=O)NC(=O)C2)C1=O (stereo not shown) [Streptovitacin A],EC50,[1]; [3],3.7 µM
same,CC50,HepG2 cells; [4],32.4 µM
CCCC(c1cc(C(C)(C)C)c(O)cc1C)c1cc(C(C)(C)C)c(O)cc1C [Sumilit BBM],EC50,[1]; [3],9.4 µM
same,CC50,HepG2 cells; [4],71.7 µM
COc1ccc2cc1Oc1ccc(cc1)C[C@H]1c3cc(c(OC)cc3CCN1C)Oc1c(OC)c(OC)cc3c1[C@H](C2)N(C)CC3 [Tetrandrine],EC50,[1]; [6],5.6 µM
same,CC50 at 24 h,[2],31.4 µM
CC(C)[C@@H]1NC(=O)[C@H](C)OC(=O)[C@@H](C(C)C)NC(=O)[C@@H](C(C)C)OC(=O)[C@H](C(C)C)NC(=O)[C@H](C)OC(=O)[C@@H](C(C)C)NC(=O)[C@@H](C(C)C)OC(=O)[C@H](C(C)C)NC(=O)[C@H](C)OC(=O)[C@@H](C(C)C)NC(=O)[C@@H](C(C)C)OC1=O [Valinomycin],EC50,[1]; [6],0.02 µM
same,CC50 at 24 h,[2]; [4],10.7 µM
